In brackets after ≈: the same amount, converted by molar mass.
Assays:
Assay type in all cases: in vivo
[1] = tested on: Puccinia Recondita; test: Direct protectant activity against wheat brown rust (Pr); parameters: scale not given here; settings: foliar spray, 1 kg/ha, 10 days; activity grade 1 or 2, not defined
Description: (i) Activity Against Wheat Brown Rust (Puccinia Recondita; Pr) The test is a direct protectant one using a foliar spray. […] The plants are then sprayed with the test compound at a dosage of 1 kg/ha using a track sprayer as described under (a). Test compounds are applied as solutions or suspensions in a mixture of acetone and water (50:50 v/v) containing 0.04% surfactant ("TWEEN 20"--Trade Mark). 18-24 hours after treatment, the seedlings are inoculated by spraying the plants from all sides with an aqueous spore suspension containing about 10^5 spores/ml. For 18 hours after inoculation, the plants are kept in high humidity conditions at a temperature of 20°-22° C. Thereafter, the plants are kept in ambient glasshouse conditions, that is, in moderate relative humidity and at a temperature of 20° C. The disease is assessed 10 days after inoculation on the basis of the percentage of the plant covered by sporulating pustules compared with that on the control plants.

[2] = tested on: Plasmopara viticola; test: Direct protectant activity against vine downy mildew (Pvp); parameters: Pvp: direct protectant activity against vine downy mildew: scale not given here; settings: foliar spray, 1 kg/ha; activity grade 1 or 2, not defined
How it was run: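 Lower leaf surfaces of whole vine plants (cv Cabernet Sauvignon) were sprayed at 1 kg/ha in water/acetone with surfactant, then inoculated 24 h later with 10^4 zoosporangia/ml. Scored as % leaf area with sporulation versus control leaves.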

[3] = tested on: Leptosphaeria nodorum; test: Direct antisporulant activity against wheat leafspot (Ln); parameters: scale not given here; settings: foliar spray, 1 kg/ha; activity grade 1 or 2, not defined
How it was run: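 Single-leaf wheat plants were spray-inoculated with 8×10^5 spores/ml and held 24 h at high humidity before foliar spray treatment. Plants were then kept 5 days in the glasshouse. Read-out is the percentage of leaf area sporulating, relative to untreated controls.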

[4] = tested on: Botrytis cinerea; test: Direct protectant activity against vine grey mould (Bcp); settings: for Bcp: direct protectant activity against vine grey mould: foliar spray, 1 kg/ha, activity grade 1 or 2, not defined
Text: (b) Direct Protectant Activity Against Vine Grey Mould (Botrytis cinerea; Bcp) The test is a direct protectant one using a foliar spray and is effected as described under (a), with the difference that the leaves are inoculated by spraying with an aqueous solution containing 10^5 conidia/ml.

[5] = tested on: Alternaria Solani; test: Direct protectant activity against tomato early blight (As); parameters: As: activity against tomato early blight: scale not given here; settings: for As: activity against tomato early blight: foliar spray as under (a), 8 days, activity grade 1 or 2, not defined; as to As: activity against tomato early blight: dose 1000 g/ha
Description: (g) Activity Against Tomato Early Blight (Alternaria Solani; As). The test is a direct protectant one using a foliar spray. The upper surfaces of leaves of young tomato plants are sprayed with a solution of active material as described in (a) above. After 24 hours under normal glasshouse conditions, the upper surfaces of the leaves are inoculated by spraying with an aqueous suspension containing 10^4 spores/ml. The inoculated plants are kept for 72 hours in a high humidity compartment and are then removed to lower humidity (50-70% relative humidity). Assessment is made 8 days after inoculation.

[6] = tested on: Plasmopara viticola; test: Translaminar protectant test, vine downy mildew (Pvt); settings: secondary screening
Text: The fungicidal activity of certain of the compounds was investigated further, in secondary screening.

[7] = tested on: Erysiphe graminis f.sp. hordei; test: Direct antisporulant activity against barley powdery mildew (Eg); parameters: scale not given here; settings: foliar spray, 1 kg/ha; activity grade 1 or 2, not defined
How it was run: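 Barley seedlings (cv. Golden Promise) were dusted with conidia one day before a foliar spray of compound. Plants were then held at ambient glasshouse conditions for up to 7 days. Sporulating leaf area (%) was scored against untreated control plants.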

[8] = tested on: Plasmopara viticola; test: Antisporulant activity against vine downy mildew (Pva); settings: foliar spray, 1 kg/ha; activity grade 1 or 2, not defined
Description: (j) Antisporulant Activity Against Vine Downy Mildew (Plasmopara viticola; Pva)
The test is a direct antisporulant one using a foliar spray. The lower surfaces of leaves of whole vine plants (cv Cabernet Sauvignon) are inoculated by spraying with an aqueous suspension containing 10^4 zoosporangia/ml 2 days prior to treatment with the test compound. The inoculated plants are kept for 24 hours in a high humidity compartment, and then 24 hours at glasshouse ambient temperature and humidity. When the plants are dry, infected leaves are sprayed on their lower surfaces with a solution of active material in 1:1 water/acetone containing 0.04% w/w "Triton X-155" (trade mark) (an octylphenol polyethoxylate surfactant). The spraying is carried out with a moving track sprayer with delivers 620 liter/ha, and the concentration of active material is calculated to give an application rate of 1 kg/ha. After spraying, the plants are returned to normal glasshouse conditions for 96 hours and are then transferred to the high humidity compartment for 24 hours to induce sporulation, prior to assessment. Assessment is visual and is based on the percentage of the leaf area covered by sporulation compared with that on control leaves.

[9] = tested on: rice root nematode Meloidogyne graminicola; test: Nematicidal water screen; settings: for activity against the nematodes, water screen: nematodes retained in dilute aqueous solution
Description: (§1) The nematicidal activity of the compounds of Example 17 and 23 was investigated. They were tested against the rice root nematode Meloidogyne graminicola in a water screen whereby the effect of retaining the nematodes in a dilute aqueous solution of the compounds was studied, and in a soil drench test in which the propensity of these nematodes to cause knots in the roots of grain sorghum S. bicolor was studied as a function of concentration of the compounds applied to the soil. […] Thus in the water screen test it was determined that the minimum inhibitory concentration of the compound of Example 23 was 0.53 ppm.

[10] = tested on: rice root nematode Meloidogyne graminicola; test: Nematicidal soil drench test (root knots in grain sorghum); settings: knots in roots of grain sorghum S. bicolor
Description: as §1

Row | Structure (SMILES) | Pr: activity against wheat brown rust [1] | Pvp: direct protectant activity against vine downy mildew [2] | Ln: activity against wheat leafspot [3] | As: activity against tomato early blight [5] | Eg: activity against barley powdery mildew [7] | Other: Pva, antisporulant activity against vine downy mildew [8] | other results
1 | N#CN=[N+]([O-])c1ccc2oc(=O)ccc2c1 [Example 1] | 2 | 2 | 1 | 2 |  |  | Bcp: direct protectant activity against vine grey mould [4]: 1; activity against As ([5]; secondary screening): high activity; activity against Pvt [6]: high activity
2 | CC1Cc2cc(Cl)cc([N+]([O-])=NC#N)c2O1 (stereo not shown) [Example 6] | 2 | 2 | 1 | 1 |  |  | 
3 | N#CN=[N+]([O-])c1cc(Cl)cc2c1OCC=C2 [Example 26] | 1 | 2 |  |  | 2 | 2 | Bcp: direct protectant activity against vine grey mould [4]: 2; activity against Pvt [6]: high activity
4 | Cc1oc2c([N+]([O-])=NC#N)cccc2c1C [Example 18] | 2 | 2 |  | 2 | 1 |  | 
5 | N#CN=[N+]([O-])c1cc(Cl)cc2c1OC(CO)C2 (stereo not shown) [Example 11] | 1 | 2 |  |  |  |  | 
6 | CC1(C)C=Cc2cc(F)cc([N+]([O-])=NC#N)c2O1 [Example 29] |  |  |  |  | 1 | 2 | 
7 | N#CN=[N+]([O-])c1cc(Cl)cc2c1OC(CCl)C2 (stereo not shown) [Example 10] | 2 | 2 | 1 |  |  |  | 
8 | CC1Oc2c(cc(Cl)cc2[N+]([O-])=NC#N)C1C (stereo not shown) [Example 5] | 2 | 2 | 1 |  | 1 | 2 | 
9 | CC1Oc2c(cccc2[N+]([O-])=NC#N)C1C (stereo not shown) [Example 9] |  |  | 1 |  | 1 | 1 | 
10 | CC1(C)Cc2cc(Cl)cc([N+]([O-])=NC#N)c2O1 [Example 4] | 2 | 2 | 1 |  |  |  | 
11 | Cc1cc2cc([N+]([O-])=NC#N)ccc2o1 [Example 23] | 2 |  |  | 1 | 1 | 2 | MIC ([9]; Meloidogyne graminicola, water screen, read-out: minimum inhibitory concentration, water screen): 0.53 µg/mL (≈ 2.63 µM); activity against the nematodes, water screen [9]: activity against the nematodes; activity against the nematodes, soil drench test [10]: activity against the nematodes
12 | N#CN=[N+]([O-])c1cccc2c3c(oc12)CCCC3 [Example 17] | 1 | 2 | 1 | 1 |  |  | activity against the nematodes, water screen [9]: activity against the nematodes; activity against the nematodes, soil drench test [10]: activity against the nematodes
13 | Cc1cc2cccc([N+]([O-])=NC#N)c2o1 [Example 16] | 1 | 2 |  | 2 |  |  | Bcp: direct protectant activity against vine grey mould [4]: 2; activity against Bcp ([4]; secondary screening): high activity; activity against Pvt [6]: high activity

— patent US5376679A, “Bicyclic or tricyclic biocidal compounds” (Shell Internationale Research Maatschappij B.V., priority 1988, dated 1994)
